According to ChEMBL document CHEMBL1201862, “PubChem BioAssay data set” (2004):
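Growth conditions: 96-well plates. Treatment: test compound, 48 hours, 5 concentrations. Analysis: linear interpolation between bracketing concentrations; unreached endpoints set to highest concentration. GI50: concentration for 50% inhibition of growth.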 Activity calls are given as the source filed them. No stated cut-off is given here; in the data, active = GI50 up to about 1.1 µM and inactive = higher.

Assays:
Assay in all cases: inhibition of tumour cell growth, NCI panel, 48 h
[1] = test system: SF-539
[2] = test system: 786-0
[3] = test system: OVCAR-5
[4] = test system: HOP-62
[5] = test system: M14
[6] = test system: SF-295
[7] = test system: UACC-257
[8] = test system: HCC 2998
[9] = test system: CAKI-1
[10] = test system: K562
[11] = test system: OVCAR-8
[12] = test system: SNB-75
[13] = test system: IGROV-1
[14] = test system: HL-60
[15] = test system: DMS-273
[16] = test system: RXF 393
[17] = test system: M19-MEL
[18] = test system: KM12
[19] = test system: CCRF-CEM
[20] = test system: TK-10
[21] = test system: SK-MEL-28
[22] = test system: EKVX
[23] = test system: SNB-19
[24] = test system: SK-OV-3
[25] = test system: XF498
[26] = test system: SF-268
[27] = test system: SNB-78
[28] = test system: U-251
[29] = test system: HCT-116
[30] = test system: A498
[31] = test system: SK-MEL-5
[32] = test system: A549
[33] = test system: HT-29
[34] = test system: HOP-92
[35] = test system: COLO 205
[36] = test system: ACHN
[37] = test system: NCI-H23
[38] = test system: UACC-62
[39] = test system: SW-620
[40] = test system: HOP-18
[41] = test system: SK-MEL-2
[42] = test system: SN12C
[43] = test system: NCI-H460
[44] = test system: DMS-114
[45] = test system: LOX IMVI
[46] = test system: KM-20L2
[47] = test system: OVCAR-4
[48] = test system: UO-31
[49] = test system: DLD-1
[50] = test system: NCI-H522
[51] = test system: Malme-3M
[52] = test system: HCT-15
[53] = test system: MOLT-4
[54] = test system: NCI-H226
[55] = test system: LXFL 529
[56] = test system: OVCAR-3
[57] = test system: DU-145
[58] = test system: MDA-MB-231
[59] = test system: MDA-N
[60] = test system: MDA-MB-435
[61] = test system: PC-3
[62] = test system: SR
[63] = test system: Hs-578T
[64] = test system: BT-549
[65] = test system: MCF7
[66] = test system: NCI/ADR-RES
[67] = test system: RPMI-8226

O=[N+]([O-])C(/C=N/Nc1ccccc1)/C=N/Nc1ccccc1
GI50 [1]: > 100000 nM (inactive)
GI50 [2]: > 100000 nM (inactive)
GI50 [3]: > 100000 nM (inactive)
GI50 [4]: > 100000 nM (inactive)
GI50 [5]: > 100000 nM (inactive)
GI50 [6]: > 100000 nM (inactive)
GI50 [7]: > 100000 nM (inactive)
GI50 [8]: > 100000 nM (inactive)
GI50 [9]: > 100000 nM (inactive)
GI50 [10]: > 100000 nM (inactive)
GI50 [11]: > 100000 nM (inactive)
GI50 [12]: > 100000 nM (inactive)
GI50 [13]: > 100000 nM (inactive)
GI50 [14]: > 100000 nM (inactive)
GI50 [15]: > 100000 nM (inactive)
GI50 [16]: > 100000 nM (inactive)
GI50 [17]: > 100000 nM (inactive)
GI50 [18]: > 100000 nM (inactive)
GI50 [19]: > 100000 nM (inactive)
GI50 [20]: > 100000 nM (inactive)
GI50 [21]: > 100000 nM (inactive)
GI50 [22]: > 100000 nM (inactive)
GI50 [23]: > 100000 nM (inactive)
GI50 [24]: > 100000 nM (inactive)
GI50 [25]: > 100000 nM (inactive)
GI50 [26]: > 100000 nM (inactive)
GI50 [27]: > 100000 nM (inactive)
GI50 [28]: > 100000 nM (inactive)
GI50 [29]: > 100000 nM (inactive)
GI50 [30]: > 100000 nM (inactive)
GI50 [31]: > 100000 nM (inactive)
GI50 [32]: > 100000 nM (inactive)
GI50 [33]: > 100000 nM (inactive)
GI50 [34]: > 100000 nM (inactive)
GI50 [35]: > 100000 nM (inactive)
GI50 [36]: > 100000 nM (inactive)
GI50 [37]: > 100000 nM (inactive)
GI50 [38]: > 100000 nM (inactive)
GI50 [39]: > 100000 nM (inactive)
GI50 [40]: > 100000 nM (inactive)
GI50 [41]: > 100000 nM (inactive)
GI50 [42]: > 100000 nM (inactive)
GI50 [43]: > 100000 nM (inactive)
GI50 [44]: > 100000 nM (inactive)
GI50 [45]: > 100000 nM (inactive)
GI50 [46]: > 100000 nM (inactive)
GI50 [47]: > 100000 nM (inactive)
GI50 [48]: > 100000 nM (inactive)
GI50 [49]: > 100000 nM (inactive)
GI50 [50]: > 100000 nM (inactive)
GI50 [51]: > 100000 nM (inactive)
GI50 [52]: > 100000 nM
GI50 [53]: > 100000 nM (inactive)
GI50 [54]: > 100000 nM (inactive)
GI50 [55]: > 100000 nM (inactive)
GI50 [56]: > 100000 nM (inactive)

CCOC(=O)Nc1cc2c(c(N)n1)N=C(c1ccccc1)[C@H](C)N2 [MIVOBULIN ISETHIONATE]
GI50 [57]: < 0.1 nM (active)
GI50 [2]: 2.15 nM (active)
GI50 [3]: 23000 nM (inactive)
GI50 [58]: < 0.1 nM (active)
GI50 [4]: 56.2 nM (active)
GI50 [5]: 0.11 nM (active)
GI50 [6]: < 0.1 nM (active)
GI50 [7]: 2.15 nM (active)
GI50 [8]: < 0.1 nM (active)
GI50 [9]: < 0.1 nM (active)
GI50 [10]: < 0.1 nM (active)
GI50 [11]: < 0.1 nM (active)
GI50 [12]: 0.215 nM (active)
GI50 [13]: < 0.1 nM (active)
GI50 [14]: < 0.1 nM (active)
GI50 [15]: < 0.1 nM (active)
GI50 [16]: < 0.1 nM (active)
GI50 [17]: < 0.1 nM (active)
GI50 [18]: < 0.1 nM (active)
GI50 [59]: < 0.1 nM (active)
GI50 [19]: < 0.1 nM (active)
GI50 [20]: 2.73 nM (active)
GI50 [22]: 65.3 nM (active)
GI50 [60]: < 0.1 nM (active)
GI50 [61]: < 0.1 nM (active)
GI50 [23]: < 0.1 nM (active)
GI50 [24]: 17400 nM (inactive)
GI50 [25]: < 0.1 nM (active)
GI50 [26]: < 0.1 nM (active)
GI50 [27]: 10 nM (active)
GI50 [28]: 36.9 nM (active)
GI50 [29]: < 0.1 nM (active)
GI50 [62]: < 0.1 nM (active)
GI50 [30]: 29.9 nM (active)
GI50 [31]: < 0.1 nM (active)
GI50 [32]: < 0.1 nM (active)
GI50 [33]: < 0.1 nM (active)
GI50 [34]: 10 nM (active)
GI50 [35]: < 0.1 nM (active)
GI50 [36]: < 0.1 nM (active)
GI50 [37]: 1.61 nM (active)
GI50 [38]: < 0.1 nM (active)
GI50 [39]: < 0.1 nM (active)
GI50 [40]: 641 nM (active)
GI50 [41]: < 0.1 nM (active)
GI50 [42]: 47.5 nM (active)
GI50 [43]: < 0.1 nM (active)
GI50 [63]: < 0.1 nM (active)
GI50 [44]: < 0.1 nM (active)
GI50 [45]: < 0.1 nM (active)
GI50 [46]: < 0.1 nM (active)
GI50 [47]: 3.63 nM (active)
GI50 [64]: 10 nM (active)
GI50 [48]: 0.303 nM (active)
GI50 [65]: < 0.1 nM (active)
GI50 [66]: < 0.1 nM (active)
GI50 [49]: < 0.1 nM (active)
GI50 [50]: < 0.1 nM (active)
GI50 [51]: < 0.1 nM (active)
GI50 [52]: 32.4 nM
GI50 [53]: < 0.1 nM (active)
GI50 [54]: 2.15 nM (active)
GI50 [55]: < 0.1 nM (active)
GI50 [67]: 0.215 nM (active)
GI50 [56]: 0.468 nM (active)
